Reference: article PMC7004151, “Synthesis and Structure‐Activity Relationships of N‐(4‐Benzamidino)‐Oxazolidinones: Potent and Selective Inhibitors of Kallikrein‐Related Peptidase 6” (Chemmedchem, 2019)
Like-named read-outs stand apart in the source and are kept apart here.

Tests used:
Format in all cases: biochemical
KLK4 = KLK4 (Homo sapiens, UniProt Q9Y5K2); assay: KLK4 inhibition (selectivity); details: read-out: KLK4 pIC50 (converted)
Excerpt: Table 3 Activity of synthesized inhibitors against KLK6 and related proteases. | column: KLK4^a

KLK7 = biological target: T1, KLK7 (Homo sapiens, UniProt P49862); assay: KLK7 enzyme inhibition assay; details: read-out: KLK7 pIC50 (converted)
T1 construct: purchased 2B scientific
Description: (§1) Enzyme inhibition assays: All chemicals were purchased from Sigma Aldrich (Gillingham, UK) unless otherwise stated. All experiments were conducted in 384 well black, low volume microplates (Greiner 784076) with a final volume of 20 μL and compounds were dispensed into assay plates using an ECHO 550 acoustic dispenser (Labcyte). KLK6 (5 nM) (prepared as in ref. 21) was incubated with test compounds for 30 min at room temperature in assay buffer (50 mM Tris, pH 7.5, 150 mM NaCl, 1 mM EDTA, 0.05 % tween 20, 0.1 % bovine serum albumin (BSA), 1 mM dithiothreitol (DTT)) before the reaction was started by addition of 20 μM Boc‐Phe‐Ser‐Arg‐AMC substrate (Bachem). Fluorescence intensity was read at ex/em 355/460 following incubation for 2 h in the dark at room temperature.
(§2) Assays using KLK7 and KLK8 (2B scientific) were conducted in the same manner as for KLK6 with the following exceptions. Both KLK7 and KLK8 required activation before assaying. KLK7 was combined with an equal volume of 20 μg/ml thermolysin (R&D systems) in activation buffer (50 mM Tris, pH 7.5, 10 mM CaCl2, 150 mM NaCl and 0.05 % Brij‐L23) and incubated at 37 °C for 2 h, the reaction was stopped with the addition of 100 mM EDTA in stop solution (50 mM Tris, 150 mM NaCl, pH 8.5). KLK8 was combined with an equal volume of 0.4 mU/mL lysyl endopeptidase (Alpha laboratories) in activation buffer (50 mM Tris, pH 8.0) and incubated at 37 °C for 30 min. Activated KLK7 (40 nM) and KLK8 (25 nM) were assayed with 40 μM Mca‐RPKPVE‐Nval‐WRK(Dnp)‐NH2 fluorogenic MMP substrate (R&D systems) and 25 μM Boc‐V‐P‐R‐AMC substrate (R&D systems), respectively.

KLK8 = biological target: T2, KLK8 (Homo sapiens, UniProt O60259); assay: KLK8 enzyme inhibition assay; details: read-out: KLK8 pIC50 (converted)
T2 construct: purchased 2B scientific
T2 sequence (O60259 33-260): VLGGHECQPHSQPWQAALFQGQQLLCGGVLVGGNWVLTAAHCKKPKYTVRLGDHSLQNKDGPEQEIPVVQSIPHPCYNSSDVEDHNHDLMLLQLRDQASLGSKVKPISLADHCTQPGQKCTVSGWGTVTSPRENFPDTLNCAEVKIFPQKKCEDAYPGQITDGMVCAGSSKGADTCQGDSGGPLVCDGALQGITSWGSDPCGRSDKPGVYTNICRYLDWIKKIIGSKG
Description: as §1, §2

Human trypsin = biological target: T3, Human trypsin (Homo sapiens, UniProt P07477); assay: Trypsin enzyme inhibition assay; details: for IC50: read-out: Trypsin pIC50 (converted)
T3 construct: purchased Polymun Scientific
Description: Human thrombin was purchased from Biopur. Human trypsin was purchased from Polymun Scientific. Human Factor Xa was purchased from Enzo Life Sciences. […] Fluorescence intensity was then read at ex/em 485/535 following incubation for 1 h at room temperature (thrombin and factor Xa) or 20 min (trypsin).

Human thrombin = biological target: T4, Human thrombin (Homo sapiens, UniProt P00734); assay: Thrombin enzyme inhibition assay; details: read-out: Thrombin pIC50 (converted)
T4 construct: Human thrombin was purchased from Biopur; purchased Biopur
Description: (§3) Human thrombin was purchased from Biopur. Human trypsin was purchased from Polymun Scientific. Human Factor Xa was purchased from Enzo Life Sciences. Thrombin (20 nM), trypsin (0.000015 %) or Factor Xa (10 nM) were assayed in a similar manner to the KLKs but were incubated with compound for 20 min at room temperature in assay buffer (50 mM Tris HCl, pH 7.6, 100 mM NaCl, 1 mg/ml CHAPS, 0.05 % bovine serum albumin (BSA), 1 mM dithiothreitol (DTT)) before the addition of 5 μM, 2.5 μM or 1.5 μM Rhodamine 110 substrate (Cambridge bioscience ltd) respectively. Fluorescence intensity was then read at ex/em 485/535 following incubation for 1 h at room temperature (thrombin and factor Xa) or 20 min (trypsin).

Human Factor Xa = biological target: T5, Human Factor Xa (Homo sapiens, UniProt P00742); assay: Factor Xa enzyme inhibition assay; details: read-out: Factor Xa pIC50 (converted)
T5 construct: Human Factor Xa was purchased from Enzo Life Sciences; purchased Enzo Life Sciences
Description: as §3

KLK6 = KLK6 (Homo sapiens, UniProt Q92876); assay: KLK6 enzymatic inhibition assay (fluorogenic Boc-Phe-Ser-Arg-AMC substrate); set-up: made in house; details: for IC50: read-out: KLK6 pIC50 (converted); for LipE: LipE=pIC50 – logP (KLK6 pIC50, ALogP)
Description: Using our previously published KLK6 assay format,21 we performed a HTS with the European Lead Factory (ELF),22 and tested ∼350,000 substances at 10 μM for their ability to reduce KLK6‐catalyzed hydrolysis of the fluorogenic Boc‐Phe‐Ser‐Arg‐AMC peptide.
High Throughput Screen: The European Lead Factory library of ∼350,000 compounds was used for high throughput screening at the Pivot Park Screening Center facilities in Oss, The Netherlands. […] For SPR, Biacore T200 was used and KLK6 was immobilized onto a CM5 chip. […] An 8 point 1 in 3 dilution series of 1 (50 μM to 0.02 μM) was also applied at the beginning and end of each screening day.
Enzyme inhibition assays: All chemicals were purchased from Sigma Aldrich (Gillingham, UK) unless otherwise stated.

[1] = synthesized inhibitors (Table 3), 8.6 = assay limit
[2] = resynthesized stereoisomers, enzymatic inhibition assay (Table 2)

T1 sequence (P49862 30-253, species assumed): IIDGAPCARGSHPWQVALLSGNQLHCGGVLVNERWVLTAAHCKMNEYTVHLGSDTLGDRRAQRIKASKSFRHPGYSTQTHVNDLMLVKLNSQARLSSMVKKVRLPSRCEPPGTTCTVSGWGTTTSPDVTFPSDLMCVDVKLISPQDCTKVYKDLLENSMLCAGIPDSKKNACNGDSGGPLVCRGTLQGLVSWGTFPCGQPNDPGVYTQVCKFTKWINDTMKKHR
T5 sequence (P00742 235-488 limits assumed): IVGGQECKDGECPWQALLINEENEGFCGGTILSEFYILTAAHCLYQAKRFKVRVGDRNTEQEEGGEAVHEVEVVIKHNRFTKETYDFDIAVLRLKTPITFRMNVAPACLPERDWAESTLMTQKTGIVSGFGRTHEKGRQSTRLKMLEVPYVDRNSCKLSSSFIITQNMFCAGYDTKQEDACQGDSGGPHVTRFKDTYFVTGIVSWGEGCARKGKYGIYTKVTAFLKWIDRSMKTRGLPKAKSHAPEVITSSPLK
T5 sequence (P00742 41-179 partner limits assumed): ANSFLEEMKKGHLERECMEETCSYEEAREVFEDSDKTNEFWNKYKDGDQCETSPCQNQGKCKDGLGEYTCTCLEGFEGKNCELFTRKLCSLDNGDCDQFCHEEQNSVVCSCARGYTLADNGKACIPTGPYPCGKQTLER
KLK4, sequence (Q9Y5K2 31-254, species assumed): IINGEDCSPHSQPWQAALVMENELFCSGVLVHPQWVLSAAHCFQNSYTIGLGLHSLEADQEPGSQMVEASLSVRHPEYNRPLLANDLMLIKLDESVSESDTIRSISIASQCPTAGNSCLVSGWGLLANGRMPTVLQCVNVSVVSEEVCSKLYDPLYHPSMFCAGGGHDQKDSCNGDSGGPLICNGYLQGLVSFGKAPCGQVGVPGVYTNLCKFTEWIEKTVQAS

IC50 (KLK4) [µM] | IC50 (KLK7) [µM] | IC50 (KLK8) [µM] | IC50 (Human trypsin) [µM] | IC50 (Human thrombin) [µM] | IC50 (Human Factor Xa) [µM] | IC50 (KLK6; [1]) [µM] | selectivity against trypsin (Human trypsin; KLK6 over trypsin) [fold] | LipE (KLK6) | IC50 (KLK6; [2]) [µM] | KLK6 potency loss (KLK6; relative to 5) [fold] | KLK6 potency loss (KLK6; relative to 32) [fold] | gain in potency for KLK6 (KLK6; relative to 5) [fold] | KLK6 potency loss (KLK6; relative to 29) [fold] | SMILES
39.8 | > 20 | > 20 | > 20 | > 20 | > 20 | 0.794 | – | – | – | – | – | – | – | CC(C)(NC(=O)[C@H]1CN(c2ccc(C(=N)N)cc2)C(=O)O1)c1ccccc1 [Compound 27, (5R)‐3‐(4‐carbamimidoylphenyl)‐2‐oxo‐N‐(2‐phenylpropan‐2‐yl)oxazolidine‐5‐carboxamide]
– | – | 0.501 | 0.631 | – | – | 0.00501 | > 100 | 5.76 | – | – | – | – | – | CC[C@H](NC(=O)[C@H]1CN(c2ccc(C(=N)N)nc2)C(=O)O1)c1cccc2ccccc12 [Compound 34, (5R)‐3‐(6‐carbamimidoylpyridin‐3‐yl)‐N‐((1S)‐1‐(naphthalen‐1‐yl)propyl)‐2‐oxooxazolidine‐5‐carboxamide]
– | > 20 | > 20 | > 20 | > 20 | > 20 | – | – | – | > 20 | – | – | – | – | COc1cccc([C@@H](C)NC(=O)[C@H]2CN(c3ccc(C(=N)N)cc3)C(=O)O2)c1 [Compound 11, (5R)‐3‐(4‐carbamimidoylphenyl)‐N‐[(R)‐1‐(3‐methoxyphenyl)ethyl]‐2‐oxooxazolidine‐5‐carboxamide]
– | > 20 | > 20 | > 20 | > 20 | > 20 | 10 | – | – | – | 40 | – | – | – | COc1cccc([C@H](C)NC[C@H]2CN(c3ccc(C(=N)N)cc3)C(=O)O2)c1 [Compound 49, 4‐((S)‐5‐((((S)‐1‐(3‐methoxyphenyl)ethyl)amino)methyl)‐2‐oxooxazolidin‐3‐yl)benzimidamide]
5.01 | – | 10 | 5.01 | – | – | 0.316 | – | – | – | – | ~100 | – | – | CC[C@H](NC(=O)[C@H]1CN(c2ccc(CN)cc2)C(=O)O1)c1cccc2ccccc12 [Compound 35, (5R)‐3‐(4‐(aminomethyl)phenyl)‐N‐[(1S)‐1‐(naphthalen‐1‐yl)propyl]‐2‐oxooxazolidine‐5‐carboxamide]
– | – | > 20 | 10 | – | – | 0.158 | – | – | – | – | – | – | – | COc1cccc(C(C)(C)NC(=O)[C@H]2CN(c3ccc(C(=N)N)cc3)C(=O)O2)c1 [Compound 26, (5R)‐3‐(4‐carbamimidoylphenyl)‐N‐(2‐(3‐methoxyphenyl)propan‐2‐yl)‐2‐oxooxazolidine‐5‐carboxamide]
– | – | – | – | – | – | – | – | – | > 20 | – | – | – | – | COc1cccc([C@H](C)NC(=O)[C@@H]2CN(c3ccc(C(=N)N)cc3)C(=O)O2)c1 [Compound 10]
1.58 | – | – | 6.31 | – | – | 0.0316 | – | 6.20 | – | – | – | – | – | CC(C)(NC(=O)[C@H]1CN(c2ccc(C(=N)N)cc2)C(=O)O1)C(=O)Nc1ccccc1 [Compound 28, (5R)‐3‐(4‐carbamimidoylphenyl)‐N‐(2‐methyl‐1‐oxo‐1‐(phenylamino)propan‐2‐yl)‐2‐oxooxazolidine‐5‐carboxamide]
7.94 | > 20 | > 20 | 5.01 | > 20 | > 20 | 0.316 | – | – | – | – | – | – | – | COc1cccc(C(C)NC(=O)C2CC(=O)N(c3ccc(C(=N)N)cc3)C2)c1 [Compound 43, (5R)‐1‐(4‐carbamimidoylphenyl)‐N‐[(1S)‐1‐(3‐methoxyphenyl)ethyl]‐5‐oxopyrrolidine‐3‐carboxamide]
2.51 | > 20 | 5.01 | 1.58 | > 20 | > 20 | 0.0316 | – | 5.16 | – | – | – | ~10 | – | CC[C@H](NC(=O)[C@H]1CN(c2ccc(C(=N)N)cc2)C(=O)O1)c1cccc(OC)c1 [Compound 24, (5R)‐3‐(4‐carbamimidoylphenyl)‐N‐[(1S)‐1‐(3‐methoxyphenyl)propyl]‐2‐oxo‐oxazolidine‐5‐carboxamide]
– | – | > 20 | 5.01 | – | – | 0.0794 | – | – | – | – | – | – | ~6 | CC(C)(NC(=O)[C@H]1CN(c2ccc(C(=N)N)cc2)C(=O)O1)c1cccc2ccccc12 [Compound 31, (5R)‐3‐(4‐carbamimidoylphenyl)‐N‐(2‐(naphthalen‐1‐yl)propan‐2‐yl)‐2‐oxooxazolidine‐5‐carboxamide]
– | – | > 20 | 6.31 | – | – | 0.126 | – | – | – | – | – | – | – | CC[C@H](NC(=O)[C@H]1CN(c2ccc(C(=N)N)cc2)C(=O)O1)c1ccnc2ccccc12 [Compound 33, (5R)‐3‐(4‐carbamimidoylphenyl)‐2‐oxo‐N‐((1S)‐1‐(quinolin‐4‐yl)propyl)oxazolidine‐5‐carboxamide]
– | > 20 | > 20 | > 20 | > 20 | > 20 | 3.98 | – | – | – | – | – | – | – | COc1cccc(CNC(=O)[C@H]2CN(c3ccc(C(=N)N)cc3)C(=O)O2)c1 [Compound 23, (5R)‐3‐(4‐carbamimidoylphenyl)‐N‐(3‐methoxybenzyl)‐2‐oxooxazolidine‐5‐carboxamide]
1.26 | > 20 | 7.94 | 5.01 | > 20 | > 20 | 0.794 | – | – | – | – | – | – | – | COc1cccc([C@H](C)NC(=O)[C@@H]2CCN(c3ccc(C(=N)N)cc3)C2)c1 [Compound 47, (3R)‐1‐(4‐carbamimidoylphenyl)‐N‐[(1S)‐1‐(3‐methoxyphenyl)ethyl]pyrrolidine‐3‐carboxamide]
3.16 | > 20 | 10 | 3.98 | > 20 | > 20 | 0.1 | – | – | – | – | – | – | 10 | C[C@H](NC(=O)[C@H]1CN(c2ccc(C(=N)N)cc2)C(=O)O1)c1ccc2ccccc2c1 [Compound 30, (5R)‐3‐(4‐carbamimidoylphenyl)‐N‐[(1S)‐1‐(2‐naphthyl)ethyl]‐2‐oxo‐oxazolidine‐5‐carboxamide]
– | > 20 | 0.794 | 0.251 | > 20 | > 20 | 0.0316 | – | – | – | – | – | – | – | COc1cccc([C@@H](NC(=O)[C@H]2CN(c3ccc(C(=N)N)cc3)C(=O)O2)C2CC2)c1 [Compound 25, (5R)‐3‐(4‐carbamimidoylphenyl)‐N‐((1S)‐cyclopropyl(3‐methoxyphenyl)methyl)‐2‐oxooxazolidine‐5‐carboxamide]
